Reference: ChEMBL document CHEMBL1201862, “PubChem BioAssay data set” (2004)
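Results reflect a 48-hour exposure of cells in 96-well plates to compound at five concentrations. At the GI50, growth is halved.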 Activity calls are given as the source filed them. Rule as the data show it: active = GI50 up to about 1.1 µM and inactive = higher.

Columns and labels:
Experiment in all cases: growth of human tumour cells (NCI), 48 h
NCI-H226 = tested on: NCI-H226
MCF7 = tested on: MCF7
OVCAR-5 = tested on: OVCAR-5
TK-10 = tested on: TK-10
SK-MEL-5 = tested on: SK-MEL-5
UACC-62 = tested on: UACC-62
PC-3 = tested on: PC-3
HT-29 = tested on: HT-29
SNB-75 = tested on: SNB-75
NCI/ADR-RES = tested on: NCI/ADR-RES
M14 = tested on: M14
KM12 = tested on: KM12
NCI-H522 = tested on: NCI-H522
HCC 2998 = tested on: HCC 2998
786-0 = tested on: 786-0
MDA-MB-435 = tested on: MDA-MB-435
OVCAR-8 = tested on: OVCAR-8
EKVX = tested on: EKVX
NCI-H460 = tested on: NCI-H460
MDA-N = tested on: MDA-N

Compound	GI50 (NCI-H226)	GI50 (MCF7)	GI50 (OVCAR-5)	GI50 (TK-10)	GI50 (SK-MEL-5)	GI50 (UACC-62)	GI50 (PC-3)	GI50 (HT-29)	GI50 (SNB-75)	GI50 (NCI/ADR-RES)	GI50 (M14)	GI50 (KM12)	GI50 (NCI-H522)	GI50 (HCC 2998)	GI50 (786-0)	GI50 (MDA-MB-435)	GI50 (OVCAR-8)	GI50 (EKVX)	GI50 (NCI-H460)	GI50 (MDA-N)
O=[N+]([O-])c1c(Br)cc(Br)c2c1Nc1c(ccc(Cl)c1Cl)S2	5.96 µM (inactive)	2.87 µM (inactive)	17.9 µM (inactive)	22.5 µM (inactive)	13.6 µM (inactive)	16 µM (inactive)	17.7 µM (inactive)	11.7 µM (inactive)	36.5 µM (inactive)	29.5 µM (inactive)	11.4 µM (inactive)	5.89 µM (inactive)	6.53 µM (inactive)	12.4 µM (inactive)	9.18 µM (inactive)	15.5 µM (inactive)	2.79 µM (inactive)	16.6 µM (inactive)	17.8 µM (inactive)	–
COc1cc2c(cc1OC)C(N)CC2=O (stereo not given)	9.06 µM (inactive)	> 100 µM (inactive)	> 100 µM (inactive)	> 100 µM (inactive)	> 100 µM (inactive)	> 100 µM (inactive)	> 100 µM (inactive)	> 100 µM (inactive)	> 100 µM (inactive)	> 100 µM (inactive)	> 100 µM (inactive)	> 100 µM (inactive)	> 100 µM (inactive)	> 100 µM (inactive)	> 100 µM (inactive)	> 100 µM (inactive)	> 100 µM (inactive)	> 100 µM (inactive)	–	–
O=C1c2c(O)cccc2C(C(=O)CCCCC(=O)C2c3cccc(O)c3C(=O)c3c(O)cccc32)c2cccc(O)c21	0.918 µM (active)	0.845 µM (active)	0.528 µM (active)	1.55 µM (inactive)	0.473 µM (active)	0.724 µM (active)	0.107 µM (active)	0.641 µM (active)	0.948 µM (active)	–	0.897 µM (active)	0.607 µM (active)	0.543 µM (active)	0.791 µM (active)	2.24 µM (inactive)	0.809 µM (active)	0.733 µM (active)	0.596 µM (active)	0.403 µM (active)	0.879 µM (active)
Cc1ccccc1N/C(=C(/C(Cl)=C(Cl)Cl)[N+](=O)[O-])n1nnc2ccccc21	17.6 µM (inactive)	27.7 µM (inactive)	16.8 µM (inactive)	–	–	22.7 µM (inactive)	22.1 µM (inactive)	19.4 µM (inactive)	16.6 µM (inactive)	18.2 µM (inactive)	24.5 µM (inactive)	15.9 µM (inactive)	–	18 µM (inactive)	34 µM (inactive)	16.5 µM (inactive)	–	20.5 µM (inactive)	14.2 µM (inactive)	–
O=C(Cc1ccc(O)c(O)c1)NCc1c[nH]c2ccccc12	–	42 µM (inactive)	> 100 µM (inactive)	16.4 µM (inactive)	43.3 µM (inactive)	–	47.1 µM (inactive)	> 100 µM (inactive)	> 100 µM (inactive)	46.6 µM (inactive)	35.5 µM (inactive)	71.4 µM (inactive)	32.6 µM (inactive)	62.2 µM (inactive)	33.7 µM (inactive)	–	71.6 µM (inactive)	43.9 µM (inactive)	40.6 µM (inactive)	–
Cc1nc2c(o1)C(=O)c1ccccc1/C2=N\c1ccccc1	13.6 µM (inactive)	2.37 µM (inactive)	5.85 µM (inactive)	20.7 µM (inactive)	1.35 µM (inactive)	2.46 µM (inactive)	2.03 µM (inactive)	10.2 µM (inactive)	2.12 µM (inactive)	–	0.841 µM (active)	6.07 µM (inactive)	1.86 µM (inactive)	15.2 µM (inactive)	8.38 µM (inactive)	0.352 µM (active)	2 µM (inactive)	5.78 µM (inactive)	5.66 µM (inactive)	0.292 µM (active)
CC(CO)(CBr)COC(=O)c1cc(Br)c(N)c(Br)c1 (stereo not given)	> 100 µM (inactive)	–	> 100 µM (inactive)	43 µM (inactive)	> 100 µM (inactive)	> 100 µM (inactive)	> 100 µM (inactive)	> 100 µM (inactive)	–	> 100 µM (inactive)	> 100 µM (inactive)	> 100 µM (inactive)	–	> 100 µM (inactive)	50.1 µM (inactive)	98.9 µM (inactive)	> 100 µM (inactive)	37.4 µM (inactive)	–	59.7 µM (inactive)
O=[N+]([O-])c1ccc2nnnn2c1	12.3 µM (inactive)	24 µM (inactive)	41.4 µM (inactive)	48.3 µM (inactive)	18 µM (inactive)	13.4 µM (inactive)	> 100 µM (inactive)	16.5 µM (inactive)	85.3 µM (inactive)	25.5 µM (inactive)	13.8 µM (inactive)	23.1 µM (inactive)	3.39 µM (inactive)	–	22.2 µM (inactive)	11.5 µM (inactive)	44.1 µM (inactive)	> 100 µM (inactive)	31.6 µM (inactive)	–
Cc1cc(C)c(C#N)c(SC(=S)NC(=O)c2ccc(Cl)cc2)n1	–	> 100 µM (inactive)	> 100 µM (inactive)	> 100 µM (inactive)	> 100 µM (inactive)	> 100 µM (inactive)	> 100 µM (inactive)	–	> 100 µM (inactive)	> 100 µM (inactive)	> 100 µM (inactive)	> 100 µM (inactive)	–	> 100 µM (inactive)	> 100 µM (inactive)	> 100 µM (inactive)	> 100 µM (inactive)	> 100 µM (inactive)	> 100 µM (inactive)	–
CCN(CC)C(=O)Cn1c2ccccc2[n+]2cc(N)ccc12	> 100 µM (inactive)	> 100 µM (inactive)	> 100 µM (inactive)	> 100 µM (inactive)	> 100 µM (inactive)	> 100 µM (inactive)	> 100 µM (inactive)	> 100 µM (inactive)	> 100 µM (inactive)	> 100 µM (inactive)	> 100 µM (inactive)	> 100 µM (inactive)	–	> 100 µM (inactive)	> 100 µM (inactive)	> 100 µM (inactive)	> 100 µM (inactive)	> 100 µM (inactive)	> 100 µM (inactive)	–
CCOC(=O)C[n+]1cccc(C2(c3cc4ccccc4[nH]3)OCCO2)c1	> 100 µM (inactive)	> 100 µM (inactive)	> 100 µM (inactive)	> 100 µM (inactive)	> 100 µM (inactive)	> 100 µM (inactive)	> 100 µM (inactive)	> 100 µM (inactive)	> 100 µM (inactive)	> 100 µM (inactive)	> 100 µM (inactive)	> 100 µM (inactive)	–	> 100 µM (inactive)	> 100 µM (inactive)	> 100 µM (inactive)	> 100 µM (inactive)	> 100 µM (inactive)	> 100 µM (inactive)	–
CCCC(=O)OC1=C(c2ccccc2)Sc2ccccc2-n2cccc21	–	> 10 µM (inactive)	–	> 10 µM (inactive)	> 10 µM (inactive)	> 10 µM (inactive)	> 10 µM (inactive)	> 10 µM (inactive)	> 10 µM (inactive)	–	> 10 µM (inactive)	> 10 µM (inactive)	–	> 10 µM (inactive)	> 10 µM (inactive)	8.57 µM (inactive)	> 10 µM (inactive)	> 10 µM (inactive)	–	> 10 µM (inactive)
Cc1nc2ccccc2c(=O)n1-c1n[nH]c2ccccc12	80.5 µM (inactive)	> 100 µM (inactive)	> 100 µM (inactive)	> 100 µM (inactive)	> 100 µM (inactive)	> 100 µM (inactive)	> 100 µM (inactive)	> 100 µM (inactive)	> 100 µM (inactive)	> 100 µM (inactive)	> 100 µM (inactive)	> 100 µM (inactive)	> 100 µM (inactive)	> 100 µM (inactive)	> 100 µM (inactive)	> 100 µM (inactive)	> 100 µM (inactive)	> 100 µM (inactive)	> 100 µM (inactive)	–
CNC1=Nc2ccc(Cl)cc2C(c2ccccc2)=NN1C	> 100 µM (inactive)	–	> 100 µM (inactive)	84.3 µM (inactive)	49.1 µM (inactive)	> 100 µM (inactive)	–	56.5 µM (inactive)	23.4 µM (inactive)	–	> 100 µM (inactive)	> 100 µM (inactive)	> 100 µM (inactive)	24.9 µM (inactive)	54.7 µM (inactive)	–	> 100 µM (inactive)	> 100 µM (inactive)	> 100 µM (inactive)	–
O=C(Cc1nc(-c2ccccc2)cc(=O)n1-c1ccccc1Cl)c1ccncc1	> 100 µM (inactive)	–	> 100 µM (inactive)	> 100 µM (inactive)	> 100 µM (inactive)	> 100 µM (inactive)	–	> 100 µM (inactive)	25.2 µM (inactive)	–	> 100 µM (inactive)	> 100 µM (inactive)	> 100 µM (inactive)	> 100 µM (inactive)	> 100 µM (inactive)	–	> 100 µM (inactive)	> 100 µM (inactive)	> 100 µM (inactive)	–
CN(C)CCNC(=O)Cn1ccc(=O)c2c([N+](=O)[O-])cccc21	> 100 µM (inactive)	> 100 µM (inactive)	> 100 µM (inactive)	> 100 µM (inactive)	> 100 µM (inactive)	> 100 µM (inactive)	> 100 µM (inactive)	> 100 µM (inactive)	> 100 µM (inactive)	–	> 100 µM (inactive)	> 100 µM (inactive)	> 100 µM (inactive)	> 100 µM (inactive)	> 100 µM (inactive)	> 100 µM (inactive)	> 100 µM (inactive)	> 100 µM (inactive)	> 100 µM (inactive)	> 100 µM (inactive)
